Test results taken from PubChem BioAssay AID1745844 (Carcinogenic Potency Database (CPDB), 2022).
Active and inactive are the calls of the source. The rule behind the calls is not given here.

System: rodent lifetime carcinogenesis bioassay, tumor incidence TD50
Experiment: chronic cancer bioassays in animals – CPDB, compiled studies (AID 1745844)

SMILES: S=C=NCCCCCCc1ccccc1
- carcinogen call (rat, strain Fischer 344, males, in feed, site: colon, lesion: one or several types, types not named, dosed 55 weeks, study length 55 weeks): negative (inactive)
- carcinogen call (rat, strain Fischer 344, males, in feed, site: liver, lesion: hepatocellular adenoma, dosed 112 weeks, study length 112 weeks): negative (inactive)
- carcinogen call (rat, strain Fischer 344, males, in feed, site: liver, lesion: hepatocellular carcinoma, dosed 112 weeks, study length 112 weeks): negative (inactive)
- carcinogen call (rat, strain Fischer 344, males, in feed, site: pancreas, exocrine, lesion: acinar-cell adenoma, dosed 112 weeks, study length 112 weeks): negative (inactive)
- carcinogen call (rat, strain Fischer 344, males, in feed, site: pancreatic islets, lesion: islet-cell adenoma, dosed 112 weeks, study length 112 weeks): negative (inactive)

SMILES: Nc1ccc(-c2ccccc2)cc1O
- carcinogen call (rat, strain Not specified, females, in feed, site: liver, lesion: one or several types, types not named, dosed 43 weeks, study length 65 weeks): negative (inactive)

SMILES: CCN(C)N=O
- TD50 (rat, strain Fischer 344, females, in drinking water, site: all sites, lesion: one or several types, types not named, dosed 30 weeks, study length 115 weeks): 0.0386 mg/kg/day
- TD50 (rat, strain Fischer 344, males, by gavage, site: liver, lesion: hemangiosarcoma, dosed 30 weeks, study length 55 weeks): 0.12 mg/kg/day
- TD50 (rat, strain Fischer 344, males, by gavage, site: liver, lesion: hepatocellular tumor, benign, dosed 30 weeks, study length 55 weeks): 0.0503 mg/kg/day
- TD50 (rat, strain Fischer 344, males, by gavage, site: liver, lesion: several types, types named in the paper, dosed 30 weeks, study length 55 weeks): 0.0503 mg/kg/day
- TD50 (rat, strain Fischer 344, males, by gavage, site: lung, lesion: alveolar/bronchiolar adenoma, dosed 30 weeks, study length 55 weeks): 0.242 mg/kg/day
- TD50 (rat, strain Fischer 344, males, by gavage, site: nasal mucosa, lesion: one or several types, types not named, dosed 30 weeks, study length 55 weeks): 0.201 mg/kg/day

SMILES: CC(C)(C)NC(=O)[C@H]1CC[C@H]2[C@@H]3CC[C@H]4NC(=O)C=C[C@]4(C)[C@H]3CC[C@]12C
- TD50 (mouse, strain Charles River CD1, males, by gavage, site: testis, lesion: Leydig-cell adenoma, dosed 83 weeks, study length 83 weeks): 326 mg/kg/day

SMILES: NC(=O)Cc1cccc2ccccc12
- TD50 (mouse, strain B6AKF1, females, oral dosing, site: any site (literature study), lesion: several types, types named in the paper, dosed 76 weeks, study length 76 weeks): 956 mg/kg/day (inactive)
- carcinogen call (mouse, strain B6AKF1, females, oral dosing, site: liver, lesion: hepatoma, dosed 76 weeks, study length 76 weeks): negative (inactive)
- carcinogen call (mouse, strain B6AKF1, females, oral dosing, site: lung, lesion: adenoma, dosed 76 weeks, study length 76 weeks): negative (inactive)
- carcinogen call (mouse, strain B6AKF1, males, oral dosing, site: any site (literature study), lesion: several types, types named in the paper, dosed 76 weeks, study length 76 weeks): negative (inactive)
- carcinogen call (mouse, strain B6AKF1, males, oral dosing, site: liver, lesion: hepatoma, dosed 76 weeks, study length 76 weeks): negative (inactive)
- carcinogen call (mouse, strain B6AKF1, males, oral dosing, site: lung, lesion: adenoma, dosed 76 weeks, study length 76 weeks): negative (inactive)
- TD50 (mouse, strain B6C3F1, females, oral dosing, site: any site (literature study), lesion: several types, types named in the paper, dosed 76 weeks, study length 76 weeks): 213 mg/kg/day (inactive)
- TD50 (mouse, strain B6C3F1, females, oral dosing, site: liver, lesion: hepatoma, dosed 76 weeks, study length 76 weeks): 956 mg/kg/day (inactive)
- TD50 (mouse, strain B6C3F1, females, oral dosing, site: lung, lesion: adenoma, dosed 76 weeks, study length 76 weeks): 461 mg/kg/day (inactive)
- TD50 (mouse, strain B6C3F1, males, oral dosing, site: any site (literature study), lesion: several types, types named in the paper, dosed 76 weeks, study length 76 weeks): 141 mg/kg/day (inactive)
- TD50 (mouse, strain B6C3F1, males, oral dosing, site: liver, lesion: hepatoma, dosed 76 weeks, study length 76 weeks): 316 mg/kg/day (inactive)
- TD50 (mouse, strain B6C3F1, males, oral dosing, site: lung, lesion: adenoma, dosed 76 weeks, study length 76 weeks): 1010 mg/kg/day (inactive)

SMILES: CC(C)(C)c1cc(CO)cc(C(C)(C)C)c1O
- TD50 (rat, strain NZBW (hooded black and white strain), females, in feed, site: any site (literature study), lesion: several types, types named in the paper, dosed 104 weeks, study length 104 weeks): 3710 mg/kg/day (inactive)
- TD50 (rat, strain NZBW (hooded black and white strain), females, in feed, site: mammary gland, lesion: fibroadenoma, dosed 104 weeks, study length 104 weeks): 3710 mg/kg/day (inactive)
- carcinogen call (rat, strain NZBW (hooded black and white strain), males, in feed, site: any site (literature study), lesion: one or several types, types not named, dosed 104 weeks, study length 104 weeks): negative (inactive)

SMILES: Brc1cc(Br)c(-c2cc(Br)c(Br)cc2Br)cc1Br
- TD50 (mouse, strain B6C3F1, females, by gavage, site: any site (literature study), lesion: several types, types named in the paper, dosed 26 weeks, study length 131 weeks): 0.338 mg/kg/day
- TD50 (mouse, strain B6C3F1, females, by gavage, site: liver, lesion: hepatocellular adenoma + hepatocellular carcinoma + neoplastic nodule, dosed 26 weeks, study length 131 weeks): 0.402 mg/kg/day
- TD50 (mouse, strain B6C3F1, females, by gavage, site: liver, lesion: hepatocellular carcinoma, dosed 26 weeks, study length 131 weeks): 0.534 mg/kg/day
- TD50 (mouse, strain B6C3F1, females, by gavage, site: lung, lesion: alveolar/bronchiolar adenoma + alveolar/bronchiolar carcinoma, dosed 26 weeks, study length 131 weeks): 0.915 mg/kg/day
- TD50 (mouse, strain B6C3F1, females, in feed, site: any site (literature study), lesion: several types, types named in the paper, dosed 105 weeks, study length 105 weeks): 0.362 mg/kg/day
- TD50 (mouse, strain B6C3F1, females, in feed, site: liver, lesion: hepatocellular adenoma + hepatoblastoma + hepatocellular carcinoma, dosed 105 weeks, study length 105 weeks): 0.307 mg/kg/day
- TD50 (mouse, strain B6C3F1, females, in feed, site: liver, lesion: hepatocellular adenoma + hepatocellular carcinoma, dosed 105 weeks, study length 105 weeks): 0.307 mg/kg/day
- TD50 (mouse, strain B6C3F1, females, in feed, site: liver, lesion: hepatocellular adenoma, dosed 105 weeks, study length 105 weeks): 0.367 mg/kg/day
- TD50 (mouse, strain B6C3F1, females, in feed, site: liver, lesion: hepatocellular carcinoma, dosed 105 weeks, study length 105 weeks): 0.588 mg/kg/day
- TD50 (mouse, strain B6C3F1, females, in feed, site: lung, lesion: alveolar/bronchiolar adenoma + alveolar/bronchiolar carcinoma, dosed 105 weeks, study length 105 weeks): 19.1 mg/kg/day
- TD50 (mouse, strain B6C3F1, males, by gavage, site: any site (literature study), lesion: several types, types named in the paper, dosed 26 weeks, study length 131 weeks): 0.418 mg/kg/day
- TD50 (mouse, strain B6C3F1, males, by gavage, site: liver, lesion: hepatocellular adenoma + hepatocellular carcinoma + neoplastic nodule, dosed 26 weeks, study length 131 weeks): 0.285 mg/kg/day
- TD50 (mouse, strain B6C3F1, males, by gavage, site: liver, lesion: hepatocellular carcinoma, dosed 26 weeks, study length 131 weeks): 0.381 mg/kg/day
- TD50 (mouse, strain B6C3F1, males, in feed, site: any site (literature study), lesion: several types, types named in the paper, dosed 105 weeks, study length 105 weeks): 0.349 mg/kg/day
- TD50 (mouse, strain B6C3F1, males, in feed, site: liver, lesion: hepatocellular adenoma + hepatoblastoma + hepatocellular carcinoma, dosed 105 weeks, study length 105 weeks): 0.262 mg/kg/day
- TD50 (mouse, strain B6C3F1, males, in feed, site: liver, lesion: hepatocellular adenoma + hepatocellular carcinoma, dosed 105 weeks, study length 105 weeks): 0.262 mg/kg/day
- TD50 (mouse, strain B6C3F1, males, in feed, site: liver, lesion: hepatocellular adenoma, dosed 105 weeks, study length 105 weeks): 0.233 mg/kg/day
- TD50 (mouse, strain B6C3F1, males, in feed, site: liver, lesion: hepatocellular carcinoma, dosed 105 weeks, study length 105 weeks): 0.54 mg/kg/day
- TD50 (mouse, strain B6C3F1, males, in feed, site: lung, lesion: alveolar/bronchiolar adenoma + alveolar/bronchiolar carcinoma, dosed 105 weeks, study length 105 weeks): 54.9 mg/kg/day
- TD50 (rat, strain Fischer 344, females, by gavage, site: any site (literature study), lesion: several types, types named in the paper, dosed 25 weeks, study length 124 weeks): 0.365 mg/kg/day
- TD50 (rat, strain Fischer 344, females, by gavage, site: liver, lesion: cholangiocarcinoma + hepatocellular carcinoma + neoplastic nodule, dosed 25 weeks, study length 124 weeks): 0.596 mg/kg/day
- TD50 (rat, strain Fischer 344, females, by gavage, site: liver, lesion: cholangiocarcinoma, dosed 25 weeks, study length 124 weeks): 2.1 mg/kg/day
- TD50 (rat, strain Fischer 344, females, by gavage, site: liver, lesion: hepatocellular adenoma + hepatocellular carcinoma + neoplastic nodule, dosed 25 weeks, study length 124 weeks): 0.645 mg/kg/day
- TD50 (rat, strain Fischer 344, females, by gavage, site: liver, lesion: hepatocellular carcinoma, dosed 25 weeks, study length 124 weeks): 1.65 mg/kg/day
- TD50 (rat, strain Fischer 344, females, by gavage, site: liver, lesion: neoplastic nodule, dosed 25 weeks, study length 124 weeks): 1.1 mg/kg/day
- TD50 (rat, strain Fischer 344, females, in feed, site: any site (literature study), lesion: several types, types named in the paper, dosed 104 weeks, study length 104 weeks): 2.38 mg/kg/day
- TD50 (rat, strain Fischer 344, females, in feed, site: liver, lesion: hepatocellular adenoma + hepatoblastoma + hepatocellular carcinoma, dosed 104 weeks, study length 104 weeks): 0.656 mg/kg/day
- TD50 (rat, strain Fischer 344, females, in feed, site: liver, lesion: hepatocellular adenoma + hepatocellular carcinoma, dosed 104 weeks, study length 104 weeks): 0.656 mg/kg/day
- TD50 (rat, strain Fischer 344, females, in feed, site: liver, lesion: hepatocellular adenoma, dosed 104 weeks, study length 104 weeks): 0.7 mg/kg/day
- TD50 (rat, strain Fischer 344, females, in feed, site: liver, lesion: hepatocellular carcinoma, dosed 104 weeks, study length 104 weeks): 8.22 mg/kg/day
- TD50 (rat, strain Fischer 344, females, in feed, site: mammary gland, lesion: fibroadenoma, dosed 104 weeks, study length 104 weeks): 1.59 mg/kg/day
- TD50 (rat, strain Fischer 344, males, by gavage, site: any site (literature study), lesion: several types, types named in the paper, dosed 25 weeks, study length 118 weeks): 0.0645 mg/kg/day
- TD50 (rat, strain Fischer 344, males, by gavage, site: liver, lesion: cholangiocarcinoma + hepatocellular carcinoma + neoplastic nodule, dosed 25 weeks, study length 118 weeks): 0.148 mg/kg/day
- TD50 (rat, strain Fischer 344, males, by gavage, site: liver, lesion: cholangiocarcinoma, dosed 25 weeks, study length 118 weeks): 14.4 mg/kg/day
- TD50 (rat, strain Fischer 344, males, by gavage, site: liver, lesion: hepatocellular adenoma + hepatocellular carcinoma + neoplastic nodule, dosed 25 weeks, study length 118 weeks): 0.151 mg/kg/day
- TD50 (rat, strain Fischer 344, males, by gavage, site: liver, lesion: hepatocellular carcinoma, dosed 25 weeks, study length 118 weeks): 1.3 mg/kg/day
- TD50 (rat, strain Fischer 344, males, by gavage, site: liver, lesion: neoplastic nodule, dosed 25 weeks, study length 118 weeks): 0.168 mg/kg/day
- TD50 (rat, strain Fischer 344, males, in feed, site: any site (literature study), lesion: several types, types named in the paper, dosed 104 weeks, study length 104 weeks): 1.56 mg/kg/day
- TD50 (rat, strain Fischer 344, males, in feed, site: liver, lesion: hepatocellular adenoma + hepatoblastoma + hepatocellular carcinoma, dosed 104 weeks, study length 104 weeks): 0.408 mg/kg/day
- TD50 (rat, strain Fischer 344, males, in feed, site: liver, lesion: hepatocellular adenoma + hepatocellular carcinoma, dosed 104 weeks, study length 104 weeks): 0.408 mg/kg/day
- TD50 (rat, strain Fischer 344, males, in feed, site: liver, lesion: hepatocellular adenoma, dosed 104 weeks, study length 104 weeks): 0.461 mg/kg/day
- TD50 (rat, strain Fischer 344, males, in feed, site: liver, lesion: hepatocellular carcinoma, dosed 104 weeks, study length 104 weeks): 1.19 mg/kg/day
